According to patent US4771043A, “Steroidic aromatase inhibitors” (Farmitalia Carlo Erba, S.p.A., priority 1985, dated 1988):

Key:
rat ovarian aromatase = test: Inhibition of rat ovarian aromatase in vivo (PMSG-treated adult female rats, oral dosing, ovarian microsomes assayed 24 hours later); details: for % AROMATASE INHIBITION: rat ovarian microsomes 24 hours after dosing, versus vehicle treated group
Method: (§1) Aromatase inhibition by the compounds of the present invention was determined both in vitro (human placental aromatase), and in vivo (ovarian aromatase activity) in rats.
adult female rats were twice treated subcutaneously with 100 I.U. pregnant mares' serum gonadotropin (PMSG) at 4 days' interval, in order to increase ovarian aromatase activity, according to Brodie procedure [A. M. H. Brodie et al, Steroids 38, 693, 1981]. Three days after the second PMSG treatment, groups of 6 animals each were given orally the vehicle (0.5% methocel) or the inhibitor at the dose reported in the following table. Animals were killed 24 hours later, microsomes were isolated from ovaries and their aromatase activity determined using a method similar to that described above for the evaluation of the in vitro activity. The incubation were carried out for 30 minutes in 1 ml incubation volume containing 0.1 mg of microsomal proteins, 100 nM 4-[^3 H]androstenedione and 100 μM NADPH.
% inhibition of control aromatase activity was calculated.

[1] = women, R. C. Coombes et al., Lancet II, 1237, 1984; cited from earlier work
[2] = tested on: human placental aromatase; test: Aromatase inhibition in vitro (human placental microsomes, 3H2O release from 4-[1β,2β-3H]androstene-3,17-dione); assay type: biochemical; details: comparison with e.g. 4-OH-A
Method: as §1
Aromatase inhibition in vitro was determined as follows: the enzyme system was isolated from the microsomal fraction of human placental tissue according to standard procedure. The assay of Thompson and Siiteri [E. A. Thompson and P. K. Siiteri, J. Biol. Chem. 249, 5364, 1974] which determines the rate of aromatization as measured by the liberation of ^3 H2 O from 4-[1β,2β-^3 H]androstene-3,17-dione was used. All incubations were carried out in a shaking water bath at 37° C. in air in 10 mM potassium phosphate buffer, pH 7.5, which contained 100 mM KCl, 1 mM EDTA and 1 mM dithiothreitol. The experiments were carried out in 1 ml incubation volume containing 50 nM 4-[^3 H]androstenedione, various concentrations of the inhibitors, 100 μM NADPH and 0.05 mg of microsomal proteins. After 15 minutes of incubation the reaction was stopped by the addition of chloroform (5 ml). After centrifugation at 1500×g for 5 minutes, aliquots (0.5 ml) were removed from the water phase for determination of ^3 H2 O formed. […] Aromatase inhibition in vivo was determined in rats by the following procedure: […]

| Structure (SMILES) | % AROMATASE INHIBITION (rat ovarian aromatase; 30 mg/kg p.o.) | % AROMATASE INHIBITION (rat ovarian aromatase; 100 mg/kg p.o.) | effectiveness in vivo by oral route (in words) (rat ovarian aromatase; 100 mg/kg) | conjugation after oral administration (in words) [1] | % AROMATASE INHIBITION (rat ovarian aromatase; 10 mg/kg p.o.) | effectiveness in vivo by oral route (in words) (rat ovarian aromatase; 10 mg/kg) | in vitro aromatase inhibiting potency compared with reference compounds (in words) [2] |
| --- | --- | --- | --- | --- | --- | --- | --- |
| C[C@]12CCC(=O)C(O)=C1CC[C@@H]1[C@@H]2CC[C@]2(C)C(=O)CC[C@@H]12 [4-OH-A, 4-hydroxyandrosta-4-ene-3,17-dione, reference compound] | 7% | 21% | ineffective | extensively conjugated after oral administration | – | – | – |
| C[C@]12C=CC(=O)C=C1[C@@H](N=[N+]=[N-])C[C@@H]1[C@@H]2CC[C@]2(C)C(=O)CC[C@@H]12 [FCE 24403, 6α-azido androsta-1,4-diene-3,17-dione] | 89% | – | – | – | 81% | very effective | less potent in vitro than, e.g., 4-OH-A |
| C[C@]12C=CC(=O)C=C1[C@@H](N)C[C@@H]1[C@@H]2CC[C@]2(C)C(=O)CC[C@@H]12 [FCE 24968, 6α-aminoandrosta-1,4-diene-3,17-dione] | 71% | – | – | – | 53% | very effective | less potent in vitro than, e.g., 4-OH-A |
| C[C@]12C=CC(=O)C=C1CC[C@@H]1[C@@H]2CC[C@]2(C)C(=O)CC[C@@H]12 [androsta-1,4-diene-3,17-dione, reference compound] | 37% | – | – | – | – | – | – |
| C[C@]12C=CC(=O)C=C1CC[C@@H]1[C@@H]2CC[C@]2(C)OC(=O)CC[C@@H]12 [testolactone, D-homo-17a-oxaandrosta-1,4-diene-3,17-dione, reference compound] | 2% | – | – | – | – | – | – |
